Data on 18 compounds can be found in patent US10011607B2, “Ethynyl derivatives” (Hoffmann-La Roche Inc., priority 2015, dated 2018).

The experiment deals with human mGlu4 receptor (Homo sapiens (Human), UniProt Q14833). The experiment in a line: Ca2+ mobilization in vitro assay on recombinant human mGlu4 expressed in HEK293 cells (PAM). The experiment is classed as cell-based. Particulars: for Emax: HEK293, maximal response in % of maximal stimulatory effect of saturating L-AP4, read-out: Eff. (%); for EC50: HEK293 cells, human mGlu4, in presence of EC20 of L-AP4, read-out: EC50 (nM) mGlu4PAM. Summed up: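 HEK293 cells stably expressing human mGlu4 at low level, Fluo-4AM loaded; compound (11 half-log dilutions) pre-incubated 10–30 min at 37 °C, then L-AP4 added at EC20 (determined daily). Peak fluorescence minus basal, normalized to saturating L-AP4; EC50, Hill slope and % Emax from four-parameter fit.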
Sequence of human mGlu4 receptor (Q14833 33-912): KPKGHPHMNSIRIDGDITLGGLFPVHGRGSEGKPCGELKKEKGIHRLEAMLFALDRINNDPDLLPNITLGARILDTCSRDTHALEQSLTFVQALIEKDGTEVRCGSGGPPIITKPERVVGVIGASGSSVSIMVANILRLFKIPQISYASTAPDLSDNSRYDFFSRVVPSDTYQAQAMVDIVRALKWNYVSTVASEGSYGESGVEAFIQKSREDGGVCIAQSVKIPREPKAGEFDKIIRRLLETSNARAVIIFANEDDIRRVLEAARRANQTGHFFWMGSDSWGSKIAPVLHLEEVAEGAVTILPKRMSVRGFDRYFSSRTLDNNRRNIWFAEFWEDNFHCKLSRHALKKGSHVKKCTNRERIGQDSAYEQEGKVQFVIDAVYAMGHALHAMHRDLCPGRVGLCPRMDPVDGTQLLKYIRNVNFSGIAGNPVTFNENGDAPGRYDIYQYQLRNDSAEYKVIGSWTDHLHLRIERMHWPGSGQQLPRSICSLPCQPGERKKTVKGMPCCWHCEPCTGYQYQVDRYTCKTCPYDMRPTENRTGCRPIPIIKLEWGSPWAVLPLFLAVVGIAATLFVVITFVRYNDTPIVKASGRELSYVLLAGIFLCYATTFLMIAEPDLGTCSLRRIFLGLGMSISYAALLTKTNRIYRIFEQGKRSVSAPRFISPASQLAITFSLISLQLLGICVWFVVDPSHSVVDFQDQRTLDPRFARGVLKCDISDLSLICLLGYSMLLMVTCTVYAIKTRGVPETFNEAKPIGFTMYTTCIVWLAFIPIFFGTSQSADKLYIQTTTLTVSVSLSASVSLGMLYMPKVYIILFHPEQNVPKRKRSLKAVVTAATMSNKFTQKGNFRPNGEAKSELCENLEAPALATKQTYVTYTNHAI

For `CCn1cc(N2CCN3C(=O)N(c4c(F)cc(C#Cc5ccccc5)cc4F)C(=O)C[C@@]3(C)C2=O)cn1` [Example 69, (9aS)-7-[2,6-difluoro-4-(2-phenylethynyl)phenyl]-2-(1-ethylpyrazol-4-yl)-9a-methyl-4,9-dihydro-3H-pyrazino[1,2-c]pyrimidine-1,6,8-trione], the Emax worked out at 184% and the EC50 was found to be 151 nM.

For `Cc1nccc(N2CCN3C(=O)N(c4c(F)cc(C#Cc5ccccc5)cc4F)C(=O)CC3(C)C2=O)n1` (racemic) [Example 30, (9aRS)-7-[2,6-difluoro-4-(2-phenylethynyl)phenyl]-9a-methyl-2-(2-methylpyrimidin-4-yl)-4,9-dihydro-3H-pyrazino[1,2-c]pyrimidine-1,6,8-trione], the Emax worked out at 101% and the EC50 is 113 nM.

On to `CC12CC(=O)N(c3c(F)cc(C#Cc4ccccc4)cc3Cl)C(=O)N1CCN(c1cccnc1)C2=O` (racemic) [Example 74, (9aRS)-7-[2-chloro-6-fluoro-4-(2-phenylethynyl)phenyl]-9a-methyl-2-(3-pyridyl)-4,9-dihydro-3H-pyrazino[1,2-c]pyrimidine-1,6,8-trione], for which the Emax turned out to be 120% and the EC50 amounted to 102 nM.

Turning to `COCCCn1cc(N2CCN3C(=O)N(c4c(F)cc(C#Cc5ccccc5)cc4F)C(=O)C[C@@]3(C)C2=O)cn1` [Example 72, (9aS)-7-[2,6-difluoro-4-(2-phenylethynyl)phenyl]-2-[1-(3-methoxypropyl)pyrazol-4-yl]-9a-methyl-4,9-dihydro-3H-pyrazino[1,2-c]pyrimidine-1,6,8-trione], the Emax amounted to 149% and the EC50 is 122 nM.

For the compound `C[C@@]12CC(=O)N(c3c(F)cc(C#Cc4ccccc4)cc3F)C(=O)N1CCN(c1ccccn1)C2=O` [Example 5, (9aS)-7-[2,6-difluoro-4-(2-phenylethynyl)phenyl]-9a-methyl-2-(2-pyridyl)-4,9-dihydro-3H-pyrazino[1,2-c]pyrimidine-1,6,8-trione], the Emax stood at 92% and the EC50 came to 46 nM.

Turning to `C[C@@]12CC(=O)N(c3c(F)cc(C#Cc4ccccc4)cc3F)C(=O)N1CCN(c1ccc(Cl)nc1)C2=O` [Example 21, (9aS)-2-(6-chloro-3-pyridyl)-7-[2,6-difluoro-4-(2-phenylethynyl)phenyl]-9a-methyl-4,9-dihydro-3H-pyrazino[1,2-c]pyrimidine-1,6,8-trione], the Emax is 142% and the EC50 amounted to 73 nM.

Turning to `Cn1nccc1N1CCN2C(=O)N(c3c(F)cc(C#Cc4ccccc4)cc3F)C(=O)C[C@@]2(C)C1=O` [Example 65, (9aS)-7-[2,6-difluoro-4-(2-phenylethynyl)phenyl]-9a-methyl-2-(2-methylpyrazol-3-yl)-4,9-dihydro-3H-pyrazino[1,2-c]pyrimidine-1,6,8-trione], the Emax was 92% and the EC50 was 92 nM.

In the case of `C[C@@]12CC(=O)N(c3c(F)cc(C#Cc4ccccc4F)cc3F)C(=O)N1CCN(c1ccncn1)C2=O` [Example 110, (9aS)-7-[2,6-difluoro-4-[2-(2-fluorophenyl)ethynyl]phenyl]-9a-methyl-2-pyrimidin-4-yl-4,9-dihydro-3H-pyrazino[1,2-c]pyrimidine-1,6,8-trione], the Emax was 90% and the EC50 is 31 nM.

For the compound `CC12CC(=O)N(c3c(F)cc(C#Cc4ccccc4)cc3F)C(=O)N1CCN(c1ncccn1)C2=O` (racemic) [Example 25, (9aRS)-7-[2,6-difluoro-4-(2-phenylethynyl)phenyl]-9a-methyl-2-pyrimidin-2-yl-4,9-dihydro-3H-pyrazino[1,2-c]pyrimidine-1,6,8-trione], the Emax amounted to 122% and the EC50 amounted to 135 nM.

With `Cc1cn(C)c(N2CCN3C(=O)N(c4c(F)cc(C#Cc5ccccc5)cc4F)C(=O)CC3(C)C2=O)n1` (racemic) [Example 59, (9aRS)-7-[2,6-difluoro-4-(2-phenylethynyl)phenyl]-2-(1,4-dimethylimidazol-2-yl)-9a-methyl-4,9-dihydro-3H-pyrazino[1,2-c]pyrimidine-1,6,8-trione], the Emax amounted to 107% and the EC50 stood at 104 nM.

For `Cn1cc(N2CCN3C(=O)N(c4c(F)cc(C#Cc5ccccc5F)cc4F)C(=O)C[C@@]3(C)C2=O)cn1` [Example 111, (9aS)-7-[2,6-difluoro-4-[2-(2-fluorophenyl)ethynyl]phenyl]-9a-methyl-2-(1-methylpyrazol-4-yl)-4,9-dihydro-3H-pyrazino[1,2-c]pyrimidine-1,6,8-trione], the Emax was 120% and the EC50 amounted to 56 nM.

As for `Cc1nc(N2CCN3C(=O)N(c4c(F)cc(C#Cc5ccccc5)cc4F)C(=O)C[C@@]3(C)C2=O)cn1CC(F)(F)F` [Example 61, (9aS)-7-[2,6-difluoro-4-(2-phenylethynyl)phenyl]-9a-methyl-2-[2-methyl-1-(2,2,2-trifluoroethyl)imidazol-4-yl]-4,9-dihydro-3H-pyrazino[1,2-c]pyrimidine-1,6,8-trione], the Emax is 172% and the half-maximal effective concentration (EC50) was found to be 272 nM.

As to `C[C@@]12CC(=O)N(c3c(F)cc(C#Cc4ccccc4)cc3F)C(=O)N1CCN(CCn1ccnc1)C2=O` [Example 98, (9aS)-7-[2,6-difluoro-4-(2-phenylethynyl)phenyl]-2-(2-imidazol-1-ylethyl)-9a-methyl-4,9-dihydro-3H-pyrazino[1,2-c]pyrimidine-1,6,8-trione], the Emax turned out to be 135% and the 50% effective concentration (EC50) stood at 283 nM.

In the case of `C[C@@]12CC(=O)N(c3c(F)cc(C#Cc4ccccc4)cc3F)C(=O)N1CCN(CC(F)(F)F)C2=O` [Example 81, (9aS)-7-[2,6-difluoro-4-(2-phenylethynyl)phenyl]-9a-methyl-2-(2,2,2-trifluoroethyl)-4,9-dihydro-3H-pyrazino[1,2-c]pyrimidine-1,6,8-trione], the Emax worked out at 172% and the concentration giving a half-maximal response (EC50) was 112 nM.

For `Cc1nccn1CCN1CCN2C(=O)N(c3c(F)cc(C#Cc4ccccc4)cc3F)C(=O)C[C@@]2(C)C1=O` [Example 99, (9aS)-7-[2,6-difluoro-4-(2-phenylethynyl)phenyl]-9a-methyl-2-[2-(2-methylimidazol-1-yl)ethyl]-4,9-dihydro-3H-pyrazino[1,2-c]pyrimidine-1,6,8-trione], the Emax turned out to be 146% and the EC50 was 282 nM.

In the case of `CC[C@@]12CC(=O)N(c3c(F)cc(C#Cc4ccccc4)cc3F)C(=O)N1CCN(c1cccnc1)C2=O` [Example 106, (9aS)-7-[2,6-difluoro-4-(2-phenylethynyl)phenyl]-9a-ethyl-2-(3-pyridyl)-4,9-dihydro-3H-pyrazino[1,2-c]pyrimidine-1,6,8-trione], the Emax came out at 112% and the EC50 came out at 95 nM.

Turning to `COCCCN1CCN2C(=O)N(c3c(F)cc(C#Cc4ccccc4)cc3F)C(=O)C[C@@]2(C)C1=O` [Example 80, (9aS)-7-[2,6-difluoro-4-(2-phenylethynyl)phenyl]-2-(3-methoxypropyl)-9a-methyl-4,9-dihydro-3H-pyrazino[1,2-c]pyrimidine-1,6,8-trione], the Emax is 132% and the EC50 is 135 nM.

Take `C[C@@]12CC(=O)N(c3c(F)cc(C#Cc4ccccc4)cc3F)C(=O)N1CCN(Cc1ccc(F)cc1)C2=O` [Example 91, (9aS)-7-[2,6-difluoro-4-(2-phenylethynyl)phenyl]-2-[(4-fluorophenyl)methyl]-9a-methyl-4,9-dihydro-3H-pyrazino[1,2-c]pyrimidine-1,6,8-trione]: the Emax worked out at 101% and the EC50 came to 147 nM.

The EC50 is the concentration at which the effect is half-maximal.
